Results on 80 molecules are retold here after the METLIN SMRT retention time set (Domingo-Almenara et al. 2019).

The series can be described thus: gradient 5% acetonitrile 3 min, to 50% in 2 min, to 85% in 15 min, held 3 min, 100 µL/min. To be noted: column: Zorbax Extend-C18 2.1 x 50 mm; eluents: water / acetonitrile, 0.1% formic acid. The essentials:
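Pure standards were run in mixtures of ~100 molecules by HPLC coupled to a quadrupole time-of-flight mass spectrometer. The column was a Zorbax Extend-C18 (2.1 × 50 mm, 1.8 μm) at 100 μL/min, with water and acetonitrile each containing 0.1% formic acid, in positive and negative ionization mode. Dead and dwell volumes were 40 μL and 900 μL. Retention time was taken from computationally picked adduct peaks, each manually inspected, with data collected over 3 months.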
On to `OC[C@@H]1CN(C2CCCC2)C[C@H]1c1nc(-c2ccncc2)no1`, for which the RP-LC retention time was determined as 553 s.
In turn, `Cc1ccc(C(C)NC(=O)c2cccc(C3CCCN(C(=O)NC(C)C)C3)c2)c(C)c1` (stereo not given) returned an RP-LC retention time of 969 s.
On to `O=C(Cn1ccc2ccc(N3CCOCC3)nc21)NCc1cccc(Br)c1`, for which the RP-LC retention time was 918 s.
Molecule `CCCCN(C)C(=O)Cn1c(C2CC(=O)N(C3CCCC3)C2)nc2ccccc21` (stereo not given) gave an RP-LC retention time of 680 s.
Molecule `O=C(c1ccoc1)N1[C@H]2CC[C@@H]1c1cnc(-c3ccc(F)cc3)nc1C2` returned an RP-LC retention time of 882 s.
On to `O=C(CC1CC1)N1CC(F)(F)C[C@H]1c1nnc(-c2ccccc2)o1`, for which the RP-LC retention time stood at 804 s.
The value for `O=C(COc1ccccc1-c1nnc(-c2ccccc2)o1)N1CCN(C(=O)c2ccco2)CC1` was 760 s.
The value for `C=CCNC(=O)C1CCCN(C(=O)Nc2ccc(NC(=O)Nc3ccc(CC)cc3)cc2)C1` (stereo not given) was 780 s; that for `COc1ccc(Nc2ccc3c(=O)c(-c4ccccc4OC)c(C)oc3c2)cc1` was 947 s.
`COc1ccc(-n2ncc3c(=O)n(Cc4nc(-c5ccc(C(C)(C)C)cc5)no4)cnc32)cc1` displayed an RP-LC retention time of 1270 s.
The value for `Cc1oc(-c2[nH]ncc2C(=O)N2CCCCC2)cc1S(=O)(=O)Nc1cccc(Cl)c1` was 796 s; that for `O=C(Cn1ccc2ccc(N3CCOCC3)nc21)NCc1ccco1` was 773 s; that for `O=C1C2N=NN(Cc3nc(-c4ccc(Cl)cc4)no3)C2C(=O)N1c1ccc(F)cc1` (stereo not given) was 1030 s.
For `O=C(CSc1ncnc2c1cnn2-c1ccc(F)cc1)Nc1nc2ccccc2s1` the value was 1020 s.
For `c1ccc(CCc2nnc3sc(-c4ccc5ccccc5n4)nn23)cc1` the value was 1180 s; for `Cc1ccc(-c2nc(-c3ccc4c(c3)ncn4CCC(=O)N3CCCC3)no2)s1`, 753 s; for `Cc1ccc(Sc2nccnc2N2CCC(C(=O)N3CCN(c4ccc(F)cc4)CC3)CC2)cc1`, 1200 s.
Turning to `CC(C)n1cnnc1CC1CN(C(=O)Nc2cc(F)ccc2F)C1`, the RP-LC retention time is 631 s.
The value for `O=C(Cc1ccc(Br)cc1)N1CCN(c2cc(-c3ccc(Cl)cc3)[nH]n2)CC1` was 953 s.
The value for `Cc1ccc2nc(-c3ccc(Cl)cc3)c(Nc3ccccc3C)n2c1` was 890 s; that for `CCc1ccc(NC(=O)NCC2CCOCC2)cc1` was 732 s.
For `CC(O)CNC(=O)C1CCN(c2ccc(Sc3ccc(C(C)C)cc3)nn2)CC1` (stereo not given) the value was 704 s; for `CCC(=O)N1CCOc2ccc(N(C)C)cc2C1`, 570 s; for `Cc1ccc(Cn2c(=O)n(CCNC(=O)Cc3ccsc3)c3ncccc32)cc1`, 824 s.
The molecule `COc1cccc(NC(=O)Cn2ccnc2-c2ccnc(N3CCCC3)c2)c1` had an RP-LC retention time of 602 s.
For `Cn1c(=O)c(C(=O)N2CCN(c3ccccn3)CC2)nc2ccccc21` the value was 1310 s.
Molecule `CCOc1ccc(C2Cn3nnc(-c4nc(-c5ccc(OC)cc5)no4)c3CO2)cc1` (stereo not given) returned an RP-LC retention time of 1160 s.
For `CC(C)c1ccc(NC(=O)C2CCN(S(=O)(=O)c3cc(C(=O)N(C)C)cs3)CC2)cc1` the value was 958 s; for `Cc1ccc(N2CC(NC(=O)C(=O)c3c[nH]c4ccccc34)CC2=O)cc1` (stereo not given), 823 s; for `CC(=O)N(C)Cc1nc2ccccc2n1CC(=O)N1CCCC1`, 581 s.
The value for `CCOc1ccc(-c2ccc(=O)n(CCNC(=O)c3sc(C)nc3C)n2)cc1` was 672 s; that for `Cc1c(-c2ccccc2)nc2ccccc2c1C(=O)N1CCN(c2ncccn2)CC1` was 636 s; that for `Cc1cc(NC(=O)c2ccccc2C(F)(F)F)sn1` was 713 s.
`CCC(=O)Nc1ccc(-n2cnc(C(=O)NC(C)c3ccc(C)cc3)c2)nc1` (stereo not given) gave an RP-LC retention time of 781 s.
Take `O=C(c1ccoc1)N1CCC(Cc2noc(C3CC3)n2)C1` (stereo not given): the RP-LC retention time was determined as 695 s.
For `COc1ccc(-c2csc3ncnc(SCc4c(C)noc4C)c23)cc1` the value was 1030 s; for `CCc1cc(=O)n(CC(=O)Nc2ccc(OC)c(F)c2)c(N2CCOCC2)n1`, 719 s; for `O=C(NC1CCCCC1)c1ccc(CN2CCN(Cc3ccc(F)cc3)C(=O)C2=O)cc1`, 783 s.
Molecule `CCN1C(=O)COc2ccc(-c3noc(-c4cccc(Br)c4)n3)cc21` registered an RP-LC retention time of 1280 s.
The value for `COc1ccc(NC(=O)Cn2cccc(-c3nc(-c4ccc(Br)cc4)no3)c2=O)cc1` was 925 s; that for `Cc1ccccc1OCC(=O)N1C[C@@H]2C[C@H](NC(=O)c3ccccc3)[C@H]1C2` was 813 s; that for `Cc1csc(NC(=O)CSc2ccc(-c3cccs3)nn2)n1` was 750 s.
The value for `CCCn1cc(CCNS(=O)(=O)Cc2ccc(F)cc2Cl)c2cccnc21` was 900 s.
The value for `CCc1nnc(-c2cn(CC(=O)NCc3ccc(C)o3)c3ccccc23)o1` was 740 s; that for `O=C(Nc1cnc(N2CCCCC2)nc1)c1ccc(Cl)s1` was 1020 s.
Regarding `Cn1c(N2CCC(C(=O)NC3CCN(Cc4ccccc4)CC3)CC2)cc(=O)n(C)c1=O`, the RP-LC retention time stood at 578 s.
For `Cc1ccc(C)c(NC(=O)Cn2c(C)cc(-c3nnc(C)o3)c2C)c1` the value was 796 s; for `COC(=O)C(C)n1cc(-c2nc(-c3ccc(Cl)cc3)no2)ccc1=O` (stereo not given), 950 s.
`O=C(NCCCS(=O)(=O)N1CCN(c2ncccn2)CC1)C1CC1` returned an RP-LC retention time of 608 s.
For `CC(C)CCN1C(=O)C2(NCCc3c2[nH]c2ccccc32)c2cc(Br)ccc21` (stereo not given) the value was 835 s; for `COc1ccc(CNC(=O)Cn2ncc3c(c2=O)N(C2CC2)C(=O)CS3)cc1`, 667 s.
`O=C(Cc1ccccc1Br)NC1CCN(c2cc(-c3ccccc3)[nH]n2)C1` (stereo not given) yielded an RP-LC retention time of 665 s.
`COc1ccc(-c2nc3cc(C)ccn3c2NC(=O)Cc2cccc3ccccc23)cc1`: the RP-LC retention time stood at 726 s.
As for `Cc1ccc2ncn(C3CCN(S(=O)(=O)c4ccc(CC(C)C)cc4)CC3)c(=O)c2c1`, the RP-LC retention time worked out at 1150 s.
For `COC(=O)c1ncoc1-c1ccccc1C(=O)NC1CCCC1` the value was 699 s; for `O=C(c1ccccn1)N1CCN(c2cc(-c3cccs3)[nH]n2)CC1`, 648 s; for `O=C(Cn1ccn2nc(-c3ccccc3)c(CO)c2c1=O)Nc1ccc(Cl)cc1F`, 869 s.
The value for `COCC1CN(C(=O)c2ccco2)CCC1(F)F` (stereo not given) was 759 s.
For `CC(C)NC(=O)c1ccc(OCC2CCCN(C(=O)c3ccc(N(C)C)cc3)C2)cc1` (stereo not given) the value was 818 s.
In turn, `CC1=C(c2cccc(Cl)c2)S(=O)(=O)N=C1N1CCCN(C(=O)C(C)C)CC1` gave an RP-LC retention time of 786 s.
As for `Cc1c2c(nn1-c1ccc(SCc3cccc(F)c3)nn1)CCC2`, the RP-LC retention time stood at 1280 s.
Molecule `CCc1nc(N)n(CC(=O)Nc2cc(C)ccc2OC)c(=O)c1C` displayed an RP-LC retention time of 640 s.
Regarding `Cc1ccc(NC(=O)Cn2nc(C(=O)N3CCCC3)c3ccccc32)cc1`, the RP-LC retention time is 850 s.
In turn, `COc1ccc(CNC(=O)N(Cc2ccsc2)C2CC2)cc1OC` gave an RP-LC retention time of 769 s.
Consider `CCS(=O)(=O)N1CCCN(C(=O)NC)CC1`, for which the RP-LC retention time worked out at 566 s.
On to `O=C(OCc1ccccc1)c1nc2ccccc2nc1N1CCN(c2ccccn2)CC1`, for which the RP-LC retention time was 798 s.
`COc1ccc(S(=O)(=O)N2CCC(n3cnnc3C(C)C)CC2)cc1` came in with an RP-LC retention time of 694 s.
For the molecule `O=C(NCc1[nH]nc2ccccc12)C1CC(=O)N(c2cccc(Cl)c2)C1` (stereo not given), the RP-LC retention time came out at 743 s.
The value for `CC(=O)N[C@@H]1CN(C(=O)c2cc(Cl)ccc2F)C[C@H]1CO` was 608 s; that for `CNC(=O)N1CCCC(c2cccc(C(=O)N3CCN(c4cccc(Cl)c4)CC3)c2)C1` (stereo not given) was 895 s; that for `COC(=O)c1ccc2c(=O)n(-c3cc(C)cc(C)c3)c(N3CCOCC3)nc2c1` was 1040 s.
The value for `O=C(NCc1cccs1)C1CCCN(c2nnc3c(Cl)cccn23)C1` (stereo not given) was 684 s; that for `C=CC(=O)N1C/C(=C\c2ccccc2)C(=O)/C(=C/c2ccccc2)C1` was 930 s.
The value for `COc1cc2ncnc(Nc3cccc(Cl)c3)c2cc1OC` was 750 s; that for `O=C(NCc1ccc(F)c(Cl)c1)C1=C2CCCN2c2ccc(F)cc2S1(=O)=O` was 934 s.
On to `Cc1ccccc1C(=O)Nc1ccccc1NC(=O)C1CCC1`, for which the RP-LC retention time came to 795 s.
The value for `COc1ccc(Cl)cc1C(=O)N1CCN(c2cc(C)nc(N3CCOCC3)n2)CC1` was 644 s.
`Cc1sc(NC(=O)c2cccc(Br)c2)nc1-c1ccc2c(c1)N(C)C(=O)CO2` gave an RP-LC retention time of 943 s.
Regarding `CCCc1nnc(-c2cccnc2N2CCN(C(=O)c3ccc4ncccc4c3)CC2)o1`, the RP-LC retention time stood at 660 s.
In turn, `CCOC(=O)c1cnc2nc(C)ccc2c1Nc1cc(F)ccc1F` registered an RP-LC retention time of 726 s.
